Test results published in the NIST ThermoML archive (doi:10.1016/j.jct.2015.12.017).

Test: molar heat capacity at constant pressure
Settings: 101.33 kPa, Crystal 4, Vacuum adiabatic calorimetry

O=P([O-])([O-])[O-].[Co+2].[Cs+] [cesium cobalt(II) phosphate]
Settings	molar heat capacity at constant pressure [J/K/mol]
5 K	1.355
6 K	2.328
6.05 K	2.228
6.49 K	2.594
6.93 K	2.96
7 K	2.893
7.36 K	3.11
7.78 K	3.317
8 K	3.492
8.19 K	3.633
8.62 K	4.041
9 K	4.091
9.08 K	4.232
9.58 K	4.457
10 K	4.689
10.1 K	4.822
10.63 K	5.13
11.16 K	5.471
11.67 K	5.737
12.16 K	5.97
13 K	6.635
14.27 K	7.807
15 K	8.29
15.59 K	8.921
16.94 K	10.37
18.33 K	11.79
19.77 K	13.05
20 K	13.44
20.92 K	14.28
22.76 K	16.17
24.48 K	17.93
25 K	18.57
26.27 K	19.85
28.12 K	21.62
30 K	23.49
30.03 K	23.55
32 K	25.54
34.02 K	27.66
35 K	28.29
36.12 K	29.27
37.97 K	30.99
40 K	33.01
40.47 K	33.46
42.73 K	35.36
45 K	37.42
45.02 K	37.41
47.34 K	39.6
49.71 K	41.16
50 K	41.41
52.12 K	42.9
54.56 K	44.8
57.05 K	46.5
59.55 K	48
60 K	48.39
62.07 K	49.7
64.59 K	51.3
67.13 K	53
69.7 K	54.4
70 K	54.75
72.02 K	56.1
74.09 K	57.4
76.18 K	58.59
78.27 K	59.6
80 K	60.56
80.36 K	60.71
80.84 K	60.8
82.45 K	61.91
82.83 K	62.06
84.54 K	62.83
85.25 K	63.18
86.65 K	64.17
87.47 K	64.52
89.36 K	65.58
89.69 K	65.7
90 K	65.75
91.92 K	66.67
94.14 K	67.78
96.37 K	69.09
98.6 K	70.17
100 K	70.96
100.83 K	71.3
103.07 K	72.37
105.3 K	73.45
107.54 K	74.66
109.78 K	75.44
110 K	75.59
111.8 K	76.31
114.54 K	77.64
116.74 K	78.51
118.98 K	79.46
120 K	79.79
121.23 K	80.28
123.47 K	81.37
125.71 K	82.23
127.95 K	83.09
130 K	83.89
130.19 K	83.89
132.43 K	84.89
134.67 K	85.72
136.91 K	86.55
139.14 K	87.39
140 K	87.97
141.38 K	88.3
143.49 K	89.3
145.85 K	90.21
148.08 K	91.21
150 K	91.96
150.3 K	91.79
151.78 K	92.54
152.91 K	93.04
153.96 K	93.62
155.41 K	94.12
157.59 K	94.87
159.03 K	95.37
160 K	95.78
161.93 K	96.28
163.35 K	96.95
164.07 K	97.28
165.61 K	97.86
166.94 K	98.53
167.88 K	98.78
170 K	99.36
170.03 K	99.61
172.23 K	100.19
174.44 K	100.85
176.64 K	101.6
178.83 K	102.35
180 K	102.68
181.02 K	103.1
183.21 K	103.93
185.4 K	104.51
187.59 K	105.09
189.78 K	105.59
190 K	105.76
191.97 K	106.18
194.89 K	106.84
196.33 K	107.26
198.51 K	107.92
200 K	108.59
200.68 K	108.67
202.82 K	109.34
204.99 K	109.92
207.16 K	110.5
209.32 K	111.16
210 K	111.25
211.49 K	111.66
213.66 K	112.25
215.82 K	112.83
217.98 K	113.49
220 K	113.83
220.14 K	114.07
222.3 K	114.66
224.46 K	115.07
226.62 K	115.82
228.77 K	116.15
230 K	116.49
230.93 K	116.65
233.08 K	117.32
235.23 K	117.73
237.35 K	118.4
239.5 K	118.98
240 K	119.23
241.65 K	119.56
243.79 K	120.23
245.94 K	120.81
248.09 K	121.39
250 K	121.97
250.23 K	121.97
252.37 K	122.72
254.5 K	123.3
256.64 K	123.8
258.77 K	124.3
260 K	124.72
260.91 K	124.88
263.04 K	125.38
265.17 K	126.05
267.3 K	126.71
269.42 K	127.29
270 K	127.29
271.51 K	127.71
273.15 K	128.04
273.63 K	128.13
276.36 K	128.79
278.4 K	129.21
280 K	129.62
280.51 K	129.79
282.62 K	130.29
284.72 K	130.62
286.82 K	131.12
288.92 K	131.62
290 K	131.78
291.02 K	132.2
293.09 K	132.62
295.18 K	133.03
297.25 K	133.53
298.15 K	133.7
299.32 K	134.03
300 K	134.11
301 K	134.69
301.38 K	134.69
302.98 K	135.36
303.43 K	135.36
